Assay results reported in a melting point compilation (Tetko et al.; mined from patent text by program, amines drawn as free bases though some values may be those of a salt).

Structure (SMILES)	melting point [°C]
COc1ccc(N2CCN(Cc3ccc(Nc4ccnc5cc(C(F)(F)F)ccc45)cc3)CC2)cc1	235 to 237
COP(=O)(Cc1ccc(-c2nc3ccccc3s2)nc1)OC	152
c1ccc(COCCCCOCc2ccccc2)cc1	18
CC(C)c1ccccc1S(=O)(=O)c1ccc(OCCCNC(C)(C)C)cc1	116
O=C(NCCCc1ccc(CC(CCCc2ccccc2)(C(=O)OCc2ccccc2)C(=O)OCc2ccccc2)cc1)c1ccc(-c2ccccn2)cc1	118 to 120
O=S(c1ccc(/C=C/c2nc(CNc3ccc(CCCCn4ccnn4)cc3)co2)cc1)C(F)(F)F (stereo not drawn)	121 to 124
Cc1cc(-c2sc(N3CCN(Cc4ccc(C(F)(F)F)cc4)C3=O)nc2C)n[nH]1	238 to 239
CCC(=O)c1onc2ccccc12	51 to 53
OCc1cn(-c2ccc(OC(F)(F)F)cc2)cn1	105 to 106
Cc1nnc(C)n1-c1ccc(C#N)cc1	> 230
COc1nc(S(C)(=O)=O)cnc1NS(=O)(=O)c1cccc(Cl)c1Cl	237 to 238
Cn1cc(C2=C(c3cn(C4CN(C(c5ccccc5)c5ccccc5)C4)c4ccccc34)C(=O)NC2=O)c2ccccc21	102 to 105
O=[N+]([O-])c1ccc(CCc2nnco2)cc1	93 to 94
Cc1cnc(-c2ccc(-c3ccccc3S(=O)(=O)Nc3onc(C)c3C)cc2)o1	90 to 100
NS(=O)(=O)c1ncccc1C1=NOCC1	155 to 156
CC(=O)Oc1cc([N+](=O)[O-])cc2c1OC(C)(C)C2	142 to 143
O=C(Oc1ccc([N+](=O)[O-])cc1)c1ccc2[nH]cc(CCN3C(=O)c4ccccc4C3=O)c2c1	248 to 251
CCCOc1cc(CCCC2OC(=O)NC2=O)ccc1OCc1nc(-c2ccccc2)oc1C (stereo not drawn)	119 to 120
COc1cc(C(C)=O)ccc1OCCCN1C2CCC1CC(c1nsc3cc(F)ccc13)C2 (stereo not drawn)	118 to 119
O=c1oc(C(F)(F)F)nc(-c2ccccc2)c1-c1ccccc1	118

Structure (SMILES)	melting point [°C]
COCCN(C)S(=O)(=O)c1cc(-n2c(=O)cc(C(F)(F)F)n(C)c2=O)ccc1Cl	108 to 110
COc1cc(Cc2cnc(NC(C)=N)nc2N)cc(OC)c1OC	207
Cn1cncc1C(O)(c1ccc2ncccc2c1)c1ccc2nc(Cl)nc(-c3cccc(Cl)c3)c2c1 (stereo not drawn)	250
N#CCc1coc2ccc(Br)cc12	120
Nc1ncc(-c2noc(-c3cnn4c(C(F)(F)F)cc(-c5ccc(Cl)c(Cl)c5)nc34)n2)cn1	300
NC(=O)c1cc([N+](=O)[O-])cc([N+](=O)[O-])c1Cl	181 to 183
Nc1ncnc2c1c(Cl)cn2COC(O)CCO (stereo not drawn)	175 to 176
O=P(O)(O)C(Cc1cnsn1)P(=O)(O)O	> 300
COCCn1nc2c(N)nc3ccccc3c2c1CC(C)(C)O	171 to 172
CCOCc1nc2c(N)nc3ccc(OCc4ccccc4)cc3c2n1CC(C)C	183 to 184
CCc1nc2c(n1Cc1ccc(OC)cc1)C(=O)N(C)CN2c1ccc(Cl)cc1Cl	116 to 118
OCC1OC(n2cnc3c(NCCc4cn(Cc5ccc(Cl)cc5)c5ccccc45)ncnc32)C(O)C1O (stereo not drawn)	181
COC(=O)C1(O/N=C(\C(=O)OC(c2ccccc2)c2ccccc2)c2csc(NC(c3ccccc3)(c3ccccc3)c3ccccc3)n2)CCCCC1	180 to 182
COc1ccc(CCOc2ccc(NC(=O)N(C)OC)cc2)cc1	100 to 101
Nc1ccc(OCCCl)cc1	91 to 92
COCCOc1nn2c(-c3ccc(OC)cc3)nnc2c2ccccc12	174 to 176
Cn1c(CO)nc2ccc(OCc3ccccc3)nc21	133 to 135
CC1(C)COc2ccc(C[C@@H](NC(=O)c3ccc(F)c4ccccc34)[C@@H](O)c3cccc(Cl)c3)cc21 (racemic)	131 to 133
CC1(C)CC(=O)c2cc3c(cc2O1)OCO3	61 to 62
O=C(CC(NC(=O)OCc1ccccc1)c1ccccc1)Nc1n[nH]c(=S)s1 (stereo not drawn)	222 to 223

Structure (SMILES)	melting point [°C]
CS(=O)(=O)NC(=O)Cc1ccc2c(c1)Nc1nccnc1S2	236 to 238
CCCCCCCCCCCCCCCCCCN(C)c1ccc(N)cc1C(=O)O	81 to 83
Cc1nc2c(C)cccn2c1C1=NNC(=O)CO1	310 to 313
COc1cc(C=Cc2nc3c(c(=O)n(C)c(=O)n3C)n2C)cc(OC)c1	228 to 230
CN(C)CCCN(C)C1CCC2C3CCC4CCCCC4(C)C3C(O)CC21C (stereo not drawn)	130 to 131
CCc1cccc(-c2nc3ccccc3[nH]2)n1	161 to 162
c1ccc(Cn2nc(-c3ccncc3)nc2-c2ccncc2)cc1	136 to 138
CON=C(c1ccccc1OCc1ccc(C)cc1)n1ccnc1	70.5 to 72
CS(=O)(=O)c1ccc(-c2nc(-c3ccc(F)cc3)c(-c3ccncc3)[nH]2)cc1	148 to 149
CCCc1c(OCCCCCc2c(Cl)ccc(OC)c2OC)ccc(C(=O)OC)c1O	53 to 55
COc1ccccc1C1=C(C#N)C(c2ccccc2OC)c2c[nH]nc2N1 (stereo not drawn)	220
CCn1nc(C)c([N+](=O)[O-])c1C(N)=O	175 to 177
CCOC(=O)c1c(C(F)(F)F)nc(C(F)F)c(C(=O)OC)c1N(C)C1CC1	37 to 40
OCc1cn(Cc2ccc(OCc3ccccc3)cc2)nc1-c1ccccc1	88 to 89
Cc1nnc2nc(-c3ccccc3)ccn12	303 to 306
COc1cc(C)nc(N=C=S)n1	54 to 55
CN(C)C=C1C(=O)N(c2cccc(F)c2)c2ccccc21	87 to 88.5
CCOC(=O)CCCn1c(=O)[nH]c2ccccc21	88

Continued, values first:

melting point [°C]	Structure (SMILES)
131 to 133	COC1(c2cc(F)cc(Sc3ccc4c(c3)SCC(=O)N4C)c2)CCOCC1
74 to 76	CSc1nccc(C(=O)C(=O)c2ccc(F)cc2)n1
67 to 68.8	CCCC(C)Oc1ccc(C(=O)O)cc1 (stereo not drawn)
70	COCC1CN(c2ccc(OCC3CCCC3=O)cc2)C(=O)O1 (stereo not drawn)
168 to 169	CC(C)(C)OC(=O)Nc1ccsc1C(=O)O
199 to 200	CN(c1cccc2cc(-c3ncc(CC(=O)N4CCOCC4)s3)[nH]c12)S(=O)(=O)c1cccs1
183	CN(C(=O)Nc1ccccc1)c1cccc(-c2ccc(CC3SC(=O)NC3=O)cc2)c1 (stereo not drawn)
198 to 203	C=CCn1c(NCC#N)nc(N2CCc3ccccc3CC2)c(C#N)c1=O
166 to 167	Cc1nc(NCC2CC2)c2nnn(-c3ccc(C(C)C)cc3Br)c2n1
124 to 125	CCOC(=O)c1ccc(CN2CCN(C(=O)OC(C)(C)C)C(C(N)=O)C2)c(C(F)(F)F)c1 (stereo not drawn)
147 to 148	CCCCCCCCOc1ccc(C(=O)Oc2ccc(C(=O)O)c(F)c2)cc1
94 to 95	CCCCOC(=O)c1cc(=NS(=O)(=O)c2ccccc2)c2c(Cl)cc(Cl)cc2[nH]1
144 to 145	CCOC(=O)C(=O)CC(=O)c1cn(Cc2ccc(F)cc2)c2cc(Cl)c(Cl)cc2c1=O
169 to 171	COCCc1nc2c(N)nc3ccccc3c2n1CC1(O)CCC1
67 to 70	O=C(O)c1cccc(CS(=O)(=O)CCO)c1
132 to 133	Cc1cccc(-c2nc(CC(=O)O)sc2-c2ccnc(N)c2)c1
187 to 190	CC(=O)Nc1ccc2c3c1c(=O)c(C(=O)O)cn3C1CCCCC21 (stereo not drawn)
232 to 233	COC(=O)c1c(C)nc(C)c(C(=O)O)c1-c1ccccc1[N+](=O)[O-]
179 to 180	CC(=O)NC[C@H]1CN(c2ccc(-c3ccncc3)c(F)c2)C(=O)O1
175 to 177	Cc1c(C=CCN2CCOCC2)[nH]c(=O)c2c1ccc1nc(Nc3c(Cl)cccc3Cl)n(C)c12

melting point [°C]	Structure (SMILES)
119 to 121	CCOC(=O)N1CCC(c2ccc(COc3ccc(S(C)(=O)=O)cc3)nc2)CC1
175 to 176	CCC(=O)OC(C)c1ccc(-c2ccc(C(=O)O)cc2)cc1 (single isomer, unassigned; (+))
113 to 117	O=C(Cn1cccc(NC(=O)OCc2ccccc2)c1=O)NC(Cc1ccccc1)C(=O)C(F)(F)F (stereo not drawn)
225 to 226	O=C(O)Cc1ccc(NC(=O)C(COc2cccc(Cl)c2)NS(=O)(=O)c2ccc(I)cc2)cc1 (racemic)
94 to 96	CC1C(=O)Oc2c1cccc2S(=O)(=O)c1ccccc1Cl (stereo not drawn)
147 to 150	CCCCn1c(=O)n(CCC)c(=O)c2c3n(nc21)CCCN3
> 300	O=C(O)c1ccc(-c2cnc3c(O)ncnc3n2)cc1
157 to 160	COc1ccc(C(=O)N(C)c2ccc(C(=O)O)cc2)cc1
67 to 69	COc1cc(N)c(Cl)cc1C(=O)NCC1CCN(CCCCCNCc2cccs2)CC1
85	CNCCCNC(=O)[C@@H]1CCCN1S(=O)(=O)c1ccc(Cl)c(COc2cccc3c(C)cc(C)nc23)c1Cl
252 to 255	O=C1Nc2cc(Cl)cc3c2N(CC3)c2ccccc21
156 to 162	CC(=O)N1CCCc2c(c3ccc(-n4ccc(-c5ccc(C(F)(F)F)nc5)cc4=O)cc3n2C)C1
> 320	Nc1nc2c(sc(=O)n2Cc2ccc(Cl)cc2)c(=O)[nH]1
259 to 260	O=C1CCCc2c(-c3ccncc3)[nH]c(-c3ccccc3)c21
245	CCN(CC)c1ccc(C(O)C#Cc2ccc(C(=O)O)c(O)c2)cc1C(C)(C)C (stereo not drawn)
197 to 199	O=C(Nc1ccccc1Cl)Nc1nc(=O)n(CC2CC2)cc1F
168 to 170	Cc1ccc(C(=O)Nc2ccc(CN3CCCC3)c(C(F)(F)F)c2)cc1Br
148 to 149	CC(C)C(C(=O)O)c1onc(-c2ccccc2)c1-c1ccc(S(N)(=O)=O)cc1 (stereo not drawn)
113 to 114	O=C(NC(Cl)C(Cl)(Cl)Cl)c1ccccc1O (stereo not drawn)
74 to 76	N#CCC1=C(n2nc(-c3c(-c4ccccc4)nn4ccccc34)ccc2=O)CCCC1
